# Measured values taken from article PMC4980837 (Archiv der Pharmazie, 2013).
# pIC50: −log10 of the molar value. Like-named read-outs stand apart in the source and are kept apart here.
# How the values were obtained:
# [1] = target: recombinant human PDE5 (Homo sapiens, UniProt O76074); experiment: PDE5 inhibition, IMAP FP phosphodiesterase assay; format: biochemical; conditions: for inhibition at 10 µM: read-out: PDE5 % inhibition at 10 μm
# [2] = target: PDE3A (Homo sapiens, UniProt Q14432); experiment: PDE selectivity array, PDE3A with cGMP as substrate; conditions: for inhibition of cGMP hydrolysis by PDE3A (in words): at concentrations up to 50 μM
# [3] = target: PDE10A (Homo sapiens, UniProt Q9Y233); experiment: PDE selectivity array, PDE10A with cGMP as substrate; conditions: for inhibition of cGMP hydrolysis by PDE10A (in words): at concentrations up to 50 μM
# [4] = target: PDE1A (Homo sapiens, UniProt P54750); experiment: PDE selectivity array, PDE1A with cGMP as substrate; conditions: for inhibition of cGMP hydrolysis by PDE1A (in words): at concentrations up to 50 μM
# [5] = target: PDE11A (Homo sapiens, UniProt Q9HCR9); experiment: PDE selectivity array, PDE11A with cGMP and cAMP as substrates; conditions: for pIC50: 10 concentrations, double replicates
# [6] = target: PDE2A (Homo sapiens, UniProt O00408); experiment: PDE selectivity array, PDE2A with cGMP as substrate; conditions: for inhibition of cGMP hydrolysis by PDE2A (in words): at concentrations up to 50 μM
# [7] = target: PDE9A (Homo sapiens, UniProt O76083); experiment: PDE selectivity array, PDE9A with cGMP as substrate; conditions: for inhibition of cGMP hydrolysis by PDE9A (in words): at concentrations up to 50 μM
# [8] = IC50 PDE11A cAMP, substrate cAMP
# [9] = IC50 PDE11A cGMP, substrate cGMP
# PDE10A, sequence (Q9Y233 whole entry, species assumed): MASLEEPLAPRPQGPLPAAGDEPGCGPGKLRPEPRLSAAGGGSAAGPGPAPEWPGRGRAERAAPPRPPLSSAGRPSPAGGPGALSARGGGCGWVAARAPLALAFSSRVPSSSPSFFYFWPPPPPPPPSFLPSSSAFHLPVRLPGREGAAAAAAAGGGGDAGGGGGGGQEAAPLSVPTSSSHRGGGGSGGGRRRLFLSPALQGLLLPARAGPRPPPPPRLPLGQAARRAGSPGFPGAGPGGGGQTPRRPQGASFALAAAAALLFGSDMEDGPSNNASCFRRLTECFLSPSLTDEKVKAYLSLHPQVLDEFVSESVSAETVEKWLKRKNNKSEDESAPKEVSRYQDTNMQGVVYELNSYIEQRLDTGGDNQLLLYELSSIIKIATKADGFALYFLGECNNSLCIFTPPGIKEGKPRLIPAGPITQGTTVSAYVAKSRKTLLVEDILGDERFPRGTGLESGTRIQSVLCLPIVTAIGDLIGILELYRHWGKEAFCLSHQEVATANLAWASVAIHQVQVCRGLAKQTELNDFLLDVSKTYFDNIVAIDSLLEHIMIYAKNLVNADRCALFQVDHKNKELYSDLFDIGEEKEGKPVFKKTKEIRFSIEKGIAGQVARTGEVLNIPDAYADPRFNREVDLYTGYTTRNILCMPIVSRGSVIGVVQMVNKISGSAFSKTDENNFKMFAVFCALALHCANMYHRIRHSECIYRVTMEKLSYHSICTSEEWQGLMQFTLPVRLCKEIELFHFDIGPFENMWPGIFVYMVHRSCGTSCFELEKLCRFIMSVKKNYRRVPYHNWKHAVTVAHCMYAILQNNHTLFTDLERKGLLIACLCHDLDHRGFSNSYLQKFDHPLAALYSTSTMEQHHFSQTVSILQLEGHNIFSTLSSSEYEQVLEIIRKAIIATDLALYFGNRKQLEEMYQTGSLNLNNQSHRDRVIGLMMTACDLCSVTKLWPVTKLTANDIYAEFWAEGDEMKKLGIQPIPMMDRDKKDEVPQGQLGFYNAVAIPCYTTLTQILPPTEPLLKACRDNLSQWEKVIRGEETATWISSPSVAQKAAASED
# PDE3A, sequence (Q14432 whole entry, species assumed): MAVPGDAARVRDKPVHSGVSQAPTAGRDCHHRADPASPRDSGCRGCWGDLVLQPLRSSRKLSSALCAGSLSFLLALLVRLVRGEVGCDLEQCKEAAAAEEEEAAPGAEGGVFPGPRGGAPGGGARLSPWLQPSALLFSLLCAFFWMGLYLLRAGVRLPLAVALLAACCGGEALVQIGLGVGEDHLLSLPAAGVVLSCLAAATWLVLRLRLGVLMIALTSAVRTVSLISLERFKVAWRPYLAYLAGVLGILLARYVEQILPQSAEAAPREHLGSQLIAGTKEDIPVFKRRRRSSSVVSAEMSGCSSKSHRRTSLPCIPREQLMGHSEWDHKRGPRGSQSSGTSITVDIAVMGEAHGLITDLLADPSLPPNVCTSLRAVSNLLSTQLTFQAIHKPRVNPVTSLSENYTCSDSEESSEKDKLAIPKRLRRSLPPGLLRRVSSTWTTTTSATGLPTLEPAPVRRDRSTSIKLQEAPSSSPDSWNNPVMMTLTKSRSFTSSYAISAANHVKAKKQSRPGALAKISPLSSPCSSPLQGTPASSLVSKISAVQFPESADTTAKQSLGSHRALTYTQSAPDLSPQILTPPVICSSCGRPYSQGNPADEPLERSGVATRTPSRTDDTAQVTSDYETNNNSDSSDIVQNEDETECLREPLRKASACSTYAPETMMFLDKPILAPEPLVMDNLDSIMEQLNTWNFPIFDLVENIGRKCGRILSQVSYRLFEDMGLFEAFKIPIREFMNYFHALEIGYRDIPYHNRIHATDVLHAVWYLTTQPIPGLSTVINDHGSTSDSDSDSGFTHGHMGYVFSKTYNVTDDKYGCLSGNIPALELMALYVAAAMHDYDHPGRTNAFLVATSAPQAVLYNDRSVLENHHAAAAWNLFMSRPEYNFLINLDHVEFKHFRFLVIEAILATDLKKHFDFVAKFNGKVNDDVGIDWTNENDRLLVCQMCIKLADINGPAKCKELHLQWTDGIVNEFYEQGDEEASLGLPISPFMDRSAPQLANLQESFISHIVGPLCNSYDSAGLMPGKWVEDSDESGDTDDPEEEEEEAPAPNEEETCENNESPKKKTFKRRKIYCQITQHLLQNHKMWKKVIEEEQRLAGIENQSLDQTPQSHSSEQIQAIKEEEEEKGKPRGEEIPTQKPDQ
# PDE2A, sequence (O00408 whole entry, species assumed): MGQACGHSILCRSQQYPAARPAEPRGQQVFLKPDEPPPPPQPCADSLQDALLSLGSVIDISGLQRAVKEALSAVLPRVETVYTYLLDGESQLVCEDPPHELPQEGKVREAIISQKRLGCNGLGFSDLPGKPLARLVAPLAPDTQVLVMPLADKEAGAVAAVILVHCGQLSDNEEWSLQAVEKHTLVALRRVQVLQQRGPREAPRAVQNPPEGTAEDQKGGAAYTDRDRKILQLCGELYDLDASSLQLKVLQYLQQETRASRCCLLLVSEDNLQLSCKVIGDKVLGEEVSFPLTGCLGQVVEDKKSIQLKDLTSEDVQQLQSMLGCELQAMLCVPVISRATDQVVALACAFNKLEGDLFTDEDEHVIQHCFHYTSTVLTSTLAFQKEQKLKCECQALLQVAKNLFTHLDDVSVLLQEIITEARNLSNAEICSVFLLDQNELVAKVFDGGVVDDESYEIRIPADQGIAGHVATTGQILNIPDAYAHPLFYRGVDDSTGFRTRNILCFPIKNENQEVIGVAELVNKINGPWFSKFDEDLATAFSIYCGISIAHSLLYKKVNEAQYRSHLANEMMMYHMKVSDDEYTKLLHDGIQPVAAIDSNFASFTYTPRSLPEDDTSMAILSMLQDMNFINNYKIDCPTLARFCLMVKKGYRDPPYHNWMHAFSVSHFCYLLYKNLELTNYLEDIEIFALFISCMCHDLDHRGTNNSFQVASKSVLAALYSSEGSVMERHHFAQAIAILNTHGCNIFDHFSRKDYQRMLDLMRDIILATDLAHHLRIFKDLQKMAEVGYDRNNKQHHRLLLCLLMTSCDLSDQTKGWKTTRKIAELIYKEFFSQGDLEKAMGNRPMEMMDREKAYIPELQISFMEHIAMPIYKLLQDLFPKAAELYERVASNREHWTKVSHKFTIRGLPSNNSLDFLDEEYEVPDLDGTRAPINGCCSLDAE
# PDE9A, sequence (O76083 whole entry, species assumed): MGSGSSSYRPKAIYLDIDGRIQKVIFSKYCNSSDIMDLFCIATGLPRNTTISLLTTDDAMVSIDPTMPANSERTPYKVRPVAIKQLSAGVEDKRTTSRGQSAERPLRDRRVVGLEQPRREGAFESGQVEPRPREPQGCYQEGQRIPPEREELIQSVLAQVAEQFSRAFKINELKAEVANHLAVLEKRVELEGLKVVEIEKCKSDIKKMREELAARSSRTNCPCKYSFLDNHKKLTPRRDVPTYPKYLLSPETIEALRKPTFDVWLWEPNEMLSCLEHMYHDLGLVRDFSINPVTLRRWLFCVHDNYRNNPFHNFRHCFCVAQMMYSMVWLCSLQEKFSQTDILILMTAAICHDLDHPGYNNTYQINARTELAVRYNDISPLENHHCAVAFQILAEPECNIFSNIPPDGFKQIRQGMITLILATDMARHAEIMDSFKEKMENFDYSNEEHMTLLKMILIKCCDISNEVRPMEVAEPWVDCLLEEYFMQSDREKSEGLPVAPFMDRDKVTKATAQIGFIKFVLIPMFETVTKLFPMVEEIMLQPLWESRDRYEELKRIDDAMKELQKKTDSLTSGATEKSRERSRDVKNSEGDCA
# PDE11A, sequence (Q9HCR9 whole entry, species assumed): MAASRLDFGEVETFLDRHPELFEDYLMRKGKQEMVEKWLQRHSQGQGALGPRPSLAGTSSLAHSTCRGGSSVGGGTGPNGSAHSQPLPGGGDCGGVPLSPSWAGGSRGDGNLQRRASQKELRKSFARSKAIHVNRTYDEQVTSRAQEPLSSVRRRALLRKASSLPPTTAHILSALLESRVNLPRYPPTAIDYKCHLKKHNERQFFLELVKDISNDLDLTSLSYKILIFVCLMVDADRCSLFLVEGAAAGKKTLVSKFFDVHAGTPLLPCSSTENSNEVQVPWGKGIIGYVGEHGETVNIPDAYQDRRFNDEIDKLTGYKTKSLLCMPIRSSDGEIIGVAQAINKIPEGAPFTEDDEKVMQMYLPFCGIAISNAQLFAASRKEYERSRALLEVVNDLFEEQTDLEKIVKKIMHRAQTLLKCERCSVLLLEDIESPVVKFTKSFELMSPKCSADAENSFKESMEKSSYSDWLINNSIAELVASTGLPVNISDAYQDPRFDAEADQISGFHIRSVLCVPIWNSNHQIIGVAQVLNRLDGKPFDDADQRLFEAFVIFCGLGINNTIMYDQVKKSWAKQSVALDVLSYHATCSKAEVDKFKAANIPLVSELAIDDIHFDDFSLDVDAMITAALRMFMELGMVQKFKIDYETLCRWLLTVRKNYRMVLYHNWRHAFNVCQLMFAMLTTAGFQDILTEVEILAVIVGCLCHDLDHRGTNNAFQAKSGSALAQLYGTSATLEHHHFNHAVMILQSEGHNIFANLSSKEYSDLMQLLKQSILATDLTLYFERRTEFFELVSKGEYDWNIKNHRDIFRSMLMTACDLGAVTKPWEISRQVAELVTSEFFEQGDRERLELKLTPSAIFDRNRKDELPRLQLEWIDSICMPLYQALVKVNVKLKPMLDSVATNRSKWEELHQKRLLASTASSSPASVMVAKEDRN
smiles,measurement,setting,value
"COC(=O)[C@@H]1Cc2c([nH]c3ccccc23)[C@@H](c2ccc(Br)s2)N1 [Compound 4, (1S,3S) Methyl 1-(5-bromo-2-thienyl)-2,3,4,9-tetrahydro-1H-β-carboline-3-carboxylate]",inhibition at 10 µM,[1],< 60%
"CCN1C(=O)[C@@H]2Cc3c([nH]c4ccccc34)[C@@H](c3ccc(Br)s3)N2C1=O [Compound 8, (5S,11aS) 5-(5-Bromo-2-thienyl)-2-ethyl-5,6,11,11a-tetrahydro-1H-imidazo[1′,5 ′:1,6]pyrido[3,4-b]indole-1,3(2H)-dione]",pIC50,[2],< 4.30
same,inhibition of cGMP hydrolysis by PDE3A (in words),[2],lacked the ability to inhibit cGMP hydrolysis
same,pIC50,[3],< 4.30
same,inhibition of cGMP hydrolysis by PDE10A (in words),[3],lacked the ability to inhibit cGMP hydrolysis
same,pIC50,[4],< 4.30
same,inhibition of cGMP hydrolysis by PDE1A (in words),[4],lacked the ability to inhibit cGMP hydrolysis
same,pIC50,"[1]; read-out: PDE5 inhibition IC50, 10 concentrations, each with double replicates",6.80
same,pIC50,[5]; [8],4.95
same,pIC50,[5]; [9],5.11
same,pIC50,[6],< 4.30
same,inhibition of cGMP hydrolysis by PDE2A (in words),[6],lacked the ability to inhibit cGMP hydrolysis
same,pIC50,[7],< 4.30
same,inhibition of cGMP hydrolysis by PDE9A (in words),[7],lacked the ability to inhibit cGMP hydrolysis
"C=CCN1C(=O)[C@H]2Cc3c([nH]c4ccccc34)[C@@H](c3ccc(Br)s3)N2C1=O [Compound 17, (5S,11aR) 5-(5-Bromo-2-thienyl)-2-allyl-5,6,11,11a-tetrahydro-1H-imidazo[1′,5 ′:1,6]pyrido[3,4-b]indole-1,3(2H)-dione]",pIC50,[1],6.54
"COC(=O)[C@H]1Cc2c([nH]c3ccccc23)[C@@H](c2ccc(Br)s2)N1 [Compound 1, (1S,3R) Methyl 1-(5-bromo-2-thienyl)-2,3,4,9-tetrahydro-1H-β-carboline-3-carboxylate]",inhibition at 10 µM,[1],< 60%
"CC(C)(C)N1C(=O)[C@H]2Cc3c([nH]c4ccccc34)[C@@H](c3ccc(Br)s3)N2C1=O [Compound 13, (5S,11aR) 5-(5-Bromo-2-thienyl)-2-tert-butyl-5,6,11,11a-tetrahydro-1H-imidazo[1′,5 ′:1,6]pyrido[3,4-b]indole-1,3(2H)-dione]",pIC50,[1],6.41
same,inhibition at 10 µM,[1],97%
"CCCCN1C(=O)[C@@H]2Cc3c([nH]c4ccccc34)[C@@H](c3ccc(Br)s3)N2C1=O [Compound 12, (5S,11aS) 5-(5-Bromo-2-thienyl)-2-butyl-5,6,11,11a-tetrahydro-1H-imidazo[1′,5 ′:1,6]pyrido[3,4-b]indole-1,3(2H)-dione]",pIC50,[1],6.33
same,inhibition at 10 µM,[1],92%
"C=CCN1C(=O)[C@H]2Cc3c([nH]c4ccccc34)[C@H](c3ccc(Br)s3)N2C1=O [Compound 18, (5R,11aR) 5-(5-Bromo-2-thienyl)-2-allyl-5,6,11,11a-tetrahydro-1H-imidazo[1′,5 ′:1,6]pyrido[3,4-b]indole-1,3(2H)-dione]",pIC50,[1],5.27
"COC(=O)[C@@H]1Cc2c([nH]c3ccccc23)[C@H](c2ccc(Br)s2)N1 [Compound 3, (1R,3S) Methyl 1-(5-bromo-2-thienyl)-2,3,4,9-tetrahydro-1H-β-carboline-3-carboxylate]",inhibition at 10 µM,[1],< 60%
"CCCCN1C(=O)[C@H]2Cc3c([nH]c4ccccc34)[C@H](c3ccc(Br)s3)N2C1=O [Compound 10, (5R,11aR) 5-(5-Bromo-2-thienyl)-2-butyl-5,6,11,11a-tetrahydro-1H-imidazo[1′,5 ′:1,6]pyrido[3,4-b]indole-1,3(2H)-dione]",inhibition at 10 µM,[1],< 60%
"CCCCN1C(=O)[C@@H]2Cc3c([nH]c4ccccc34)[C@H](c3ccc(Br)s3)N2C1=O [Compound 11, (5R,11aS) 5-(5-Bromo-2-thienyl)-2-butyl-5,6,11,11a-tetrahydro-1H-imidazo[1′,5 ′:1,6]pyrido[3,4-b]indole-1,3(2H)-dione]",inhibition at 10 µM,[1],< 60%
"CC(C)(C)N1C(=O)[C@@H]2Cc3c([nH]c4ccccc34)[C@@H](c3ccc(Br)s3)N2C1=O [Compound 16, (5S,11aS) 5-(5-Bromo-2-thienyl)-2-tert-butyl-5,6,11,11a-tetrahydro-1H-imidazo[1′,5 ′:1,6]pyrido[3,4-b]indole-1,3(2H)-dione]",pIC50,[1],6.00
"C=CCN1C(=O)[C@@H]2Cc3c([nH]c4ccccc34)[C@H](c3ccc(Br)s3)N2C1=O [Compound 19, (5R,11aS) 5-(5-Bromo-2-thienyl)-2-allyl-5,6,11,11a-tetrahydro-1H-imidazo[1′,5 ′:1,6]pyrido[3,4-b]indole-1,3(2H)-dione]",inhibition at 10 µM,[1],< 60%
"C=CCN1C(=O)[C@@H]2Cc3c([nH]c4ccccc34)[C@@H](c3ccc(Br)s3)N2C1=O [Compound 20, (5S,11aS) 5-(5-Bromo-2-thienyl)-2-allyl-5,6,11,11a-tetrahydro-1H-imidazo[1′,5 ′:1,6]pyrido[3,4-b]indole-1,3(2H)-dione]",pIC50,[1],6.49
same,inhibition at 10 µM,[1],97%
"CN1CC(=O)N2[C@H](c3ccc4c(c3)OCO4)c3[nH]c4ccccc4c3C[C@@H]2C1=O [Tadalafil, tadalafil, reference compound]",pIC50,[2],< 4.30
same,inhibition of cGMP hydrolysis by PDE3A (in words),[2],lacked the ability to inhibit cGMP hydrolysis
same,pIC50,[3],< 4.30
same,inhibition of cGMP hydrolysis by PDE10A (in words),[3],lacked the ability to inhibit cGMP hydrolysis
same,pIC50,[4],< 4.30
same,inhibition of cGMP hydrolysis by PDE1A (in words),[4],lacked the ability to inhibit cGMP hydrolysis
same,pIC50,[6],< 4.30
same,inhibition of cGMP hydrolysis by PDE2A (in words),[6],lacked the ability to inhibit cGMP hydrolysis
same,pIC50,[7],< 4.30
same,inhibition of cGMP hydrolysis by PDE9A (in words),[7],lacked the ability to inhibit cGMP hydrolysis
"CC(C)(C)N1C(=O)[C@H]2Cc3c([nH]c4ccccc34)[C@H](c3ccc(Br)s3)N2C1=O [Compound 14, (5R,11aR) 5-(5-Bromo-2-thienyl)-2-tert-butyl-5,6,11,11a-tetrahydro-1H-imidazo[1′,5 ′:1,6]pyrido[3,4-b]indole-1,3(2H)-dione]",inhibition at 10 µM,[1],< 60%
"CCCCN1C(=O)[C@H]2Cc3c([nH]c4ccccc34)[C@@H](c3ccc(Br)s3)N2C1=O [Compound 9, (5S,11aR) 5-(5-Bromo-2-thienyl)-2-butyl-5,6,11,11a-tetrahydro-1H-imidazo[1′,5 ′:1,6]pyrido[3,4-b]indole-1,3(2H)-dione]",pIC50,[2],< 4.30
same,inhibition of cGMP hydrolysis by PDE3A (in words),[2],lacked the ability to inhibit cGMP hydrolysis
same,pIC50,[3],< 4.30
same,inhibition of cGMP hydrolysis by PDE10A (in words),[3],lacked the ability to inhibit cGMP hydrolysis
same,pIC50,[4],< 4.30
same,inhibition of cGMP hydrolysis by PDE1A (in words),[4],lacked the ability to inhibit cGMP hydrolysis
same,pIC50,[1],6.77
same,inhibition at 10 µM,[1],99%
same,pIC50,[5]; [8],5.40
same,pIC50,[5]; [9],5.64
same,Selectivity index IC50 (PDE11A/PDE5A) cGMP/cGMP,"[5]; ratio of IC50 PDE11A to PDE5A, cGMP as substrate",14
same,pIC50,[6],< 4.30
same,inhibition of cGMP hydrolysis by PDE2A (in words),[6],lacked the ability to inhibit cGMP hydrolysis
same,pIC50,[7],< 4.30
same,inhibition of cGMP hydrolysis by PDE9A (in words),[7],lacked the ability to inhibit cGMP hydrolysis
"CCN1CC(=O)N2[C@H](c3ccc(Br)s3)c3[nH]c4ccccc4c3C[C@@H]2C1=O [Compound 23, (6S,12aR) 6-(5-Bromo-2-thienyl)-2-ethyl-2,3,6,7,12,12a-hexahydropyrazino[1′,2 ′:1,6]pyrido[3,4-b]indole-1,4-dione]",pIC50,[1],5.77
same,inhibition at 10 µM,[1],81%
"CCN1CC(=O)N2[C@H](c3ccc(Br)s3)c3[nH]c4ccccc4c3C[C@H]2C1=O [Compound 24, (6S,12aS) 6-(5-Bromo-2-thienyl)-2-ethyl-2,3,6,7,12,12a-hexahydropyrazino[1′,2 ′:1,6]pyrido[3,4-b]indole-1,4-dione]",pIC50,[1],6.00
same,inhibition at 10 µM,[1],87%
"COC(=O)[C@H]1Cc2c([nH]c3ccccc23)[C@H](c2ccc(Br)s2)N1 [Compound 2, (1R,3R) Methyl 1-(5-bromo-2-thienyl)-2,3,4,9-tetrahydro-1H-β-carboline-3-carboxylate]",inhibition at 10 µM,[1],< 60%
"COC(=O)c1cc2c([nH]c3ccccc32)c(-c2ccc(Br)s2)n1 [Compound 25, Methyl 1-(5-bromo-2-thienyl)-β-carboline-3-carboxylate]",PDE5 inhibition (in words),[1]; SAR statement in text,no PDE5 inhibition
same,inhibition at 10 µM,[1],< 60%
"CC(C)(C)N1C(=O)[C@@H]2Cc3c([nH]c4ccccc34)[C@H](c3ccc(Br)s3)N2C1=O [Compound 15, (5R,11aS) 5-(5-Bromo-2-thienyl)-2-tert-butyl-5,6,11,11a-tetrahydro-1H-imidazo[1′,5 ′:1,6] pyrido[3,4-b]indole-1,3(2H)-dione]",inhibition at 10 µM,[1],< 60%
